In paper PMC5959751 (Biochemical pharmacology, 2018):
Where “and” joins values, the source holds several entries; their conditions need not be identical. Identical values can stand only once. Like-named read-outs stand apart in the source and are kept apart here.

Legend:
hA3 receptor [1] = target: T1, hA3 receptor (Homo sapiens, UniProt P0DMS8); experiment: Radioligand equilibrium displacement assay with [3H]PSB-11 on CHOhA3 membranes; type: binding; settings: no GTP; for pKi / Ki: 10 °C, 240 min, [3H]PSB-11, CHO cell membranes; for pKi: ± SEM
T1 sequence (P0DMS8 1-318): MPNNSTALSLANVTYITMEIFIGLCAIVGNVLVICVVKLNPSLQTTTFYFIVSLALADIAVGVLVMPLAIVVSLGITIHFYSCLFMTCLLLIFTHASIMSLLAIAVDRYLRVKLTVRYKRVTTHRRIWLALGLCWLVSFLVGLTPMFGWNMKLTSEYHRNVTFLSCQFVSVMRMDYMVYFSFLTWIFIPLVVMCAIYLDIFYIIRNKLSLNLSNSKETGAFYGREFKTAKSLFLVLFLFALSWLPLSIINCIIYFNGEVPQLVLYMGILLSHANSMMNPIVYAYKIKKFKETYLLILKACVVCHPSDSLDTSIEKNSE

hA3 receptor [2] = target: T1, hA3 receptor; experiment: Dual-point competition association assay with [3H]PSB-11; type: binding; settings: no GTP; t1 20 min, t2 240 min; agonist at IC50; 10 °C
hA3 receptor [3] = target: T1, hA3 receptor; experiment: Competition association assay with [3H]PSB-11; type: binding; settings: no GTP; for koff / kon: 10 °C, ± SEM; for RT (residence time): RT = 1/(60*koff); for mean pKD (kinetic): from KD = koff/kon; for Kd: read-out: Kinetic KD, KD = koff/kon
pain models = settings: five-day period; daily injection or implanted mini-pump; rat; cited from earlier work

SMILES	pKi (hA3 receptor [1])	Ki (hA3 receptor [1]; read-out: mean Ki) [nM]	koff (hA3 receptor [3])	kon (hA3 receptor [3])	RT (residence time) (hA3 receptor [3]) [min]	mean pKD (kinetic) (hA3 receptor [3])	Kd (hA3 receptor [3]) [nM]	also measured
CNC(=O)[C@H]1O[C@@H](n2cnc3c(NCc4cccc(I)c4)ncnc32)[C@H](O)[C@@H]1O [IB-MECA, 1-deoxy-1-[6-[((3-Iodophenyl)methyl)amino]-9H-purin-9-yl]-N-methyl-β-D-ribofuranuronamide, reference compound]								Hill Slope (hA3 receptor [1]; displacement curves): -0.94 ± 0.05 ^ns
OC[C@H]1O[C@@H](n2cnc3c(Nc4ccc(Cl)cc4)ncnc32)[C@H](O)[C@@H]1O [LUF5500]	7.3 ± 0.03	51						KRI (Kinetic Rate Index) (hA3 receptor [2]): 0.98 (0.95; 1.01)
OC[C@H]1O[C@@H](n2cnc3c(Nc4cccc(Cl)c4)ncnc32)[C@H](O)[C@@H]1O [LUF5501]	7.5 ± 0.02	31	(1.6 ± 0.2) × 10^-3 s^-1	(1.7 ± 0.2) × 10^5 M^-1 s^-1	10 ± 1.3	8.0	9.2 ± 1.4	difference between kinetic pKD and pKi (hA3 receptor [3]; pKD higher than pKi): 0.5 log-unit
OC[C@H]1O[C@@H](n2cnc3c(Nc4ccc(I)cc4)ncnc32)[C@H](O)[C@@H]1O [LUF5506]	7.6 ± 0.08	29						
CNC(=O)[C@H]1O[C@@H](n2cnc3c(N)ncnc32)[C@H](O)[C@@H]1O [MECA, 5′-N-methylcarboxamidoadenosine, reference compound]	7.4 ± 0.04	42						KRI (Kinetic Rate Index) (hA3 receptor [2]): 1.24 and 1.24 ± 0.09
CNC(=O)C12CC1C(n1cnc3c(NCc4cccc(Cl)c4)nc(C#Cc4ccccc4)nc31)C(O)C2O (stereo not shown) [MRS5655]	8.5 ± 0.09	3.6	(1.8 ± 0.3) × 10^-5 s^-1	(4.0 ± 0.8) × 10^5 M^-1 s^-1	909 ± 165	10.3	0.046 ± 0.013	
CNC(=O)C12CC1C(n1cnc3c(NC)nc(C#Cc4ccc(-c5ccccc5)cc4)nc31)C(O)C2O (stereo not shown) [MRS5667]	8.3 ± 0.05	4.6	(1.1 ± 0.3) × 10^-5 s^-1	(1.8 ± 0.3) × 10^5 M^-1 s^-1	1563 ± 464	10.2	0.058 ± 0.02	
CNC(=O)[C@@]12C[C@@H]1[C@@H](n1cnc3c(NCc4cccc(Cl)c4)nc(C#Cc4ccc(-c5ccccc5)cc4)nc31)[C@H](O)[C@@H]2O [MRS5679]			very slow					Ki (hA3 receptor [1]; mean Ki): 82 nM
CNC(=O)[C@@]12C[C@@H]1[C@@H](n1cnc3c(NCc4cccc(Cl)c4)nc(C#Cc4ccc(F)c(F)c4)nc31)[C@H](O)[C@@H]2O [MRS5698]								efficacy on prolonged exposure in in vivo pain models (pain models): maintained full efficacy
CNC(=O)[C@@]12C[C@@H]1[C@@H](n1cnc3c(NC)cc(C#Cc4ccc(Cl)s4)nc31)[C@H](O)[C@@H]2O [MRS7140]	8.3 ± 0.08	5.2	(8.5 ± 0.3) × 10^-5 s^-1	(3.2 ± 1.2) × 10^5 M^-1 s^-1	196 ± 8	9.6	0.27 ± 0.1	
CCCNc1nc(C#Cc2ccc(Cl)s2)nc2c1ncn2[C@H]1[C@H](O)[C@H](O)[C@]2(C(=O)NC)C[C@H]12 [MRS7154]	8.7 ± 0.06	2.2	(6.2 ± 1.2) × 10^-5 s^-1	(4.0 ± 0.7) × 10^5 M^-1 s^-1	270 ± 51	9.8	0.15 ± 0.04	
CNC(=O)C12CC1C(n1cnc3c(N(C)C)nc(C#Cc4ccc(Cl)s4)nc31)C(O)C2O (stereo not shown) [MRS7158]		618						
